Measurements taken from patent US20050026952A1, “Nicotinamide derivatives useful as PDE4 inhibitors” (Pfizer Inc, priority 2003, published 2005).

What follows are compounds tested on TNFα release from human peripheral blood mononuclear cells (assay: Inhibition of LPS-stimulated TNFα release from human peripheral blood mononuclear cells (TNFα screen)). Conditions: human PBMC, LPS stimulation, 18 hours incubation, TNFα in supernatant by ELISA.
Type: cell-based
Protocol: Venous blood is collected from healthy volunteers and the mononuclear cells purified by centrifugation through Histopaque (Ficoll) cushions. TNFα production from these cells is stimulated by addition of lipopolysaccharide. After 18 hours incubation in the presence of LPS, the cell supernatant is removed and the concentration of TNFα in the supernatant determined by ELISA. Addition of PDE4 inhibitors reduces the amount of TNFα produced. An IC50 is determined which is equal to the concentration of compound that gives 50% inhibition of TNFα production as compared to the LPS stimulated control wells.

| SMILES | IC50 [nM] |
| --- | --- |
| CSc1cccc(Oc2ncc(F)cc2C(=O)N[C@H]2CC[C@@H](NS(=O)(=O)c3cccc4cccnc34)CC2)c1 [Example 11, Syn-5-Fluoro-2-(3-methylsulphanyl-phenoxy)-N-[4-(quinoline-8-sulphonylamino)-cyclohexyl]-nicotinamide] | 0.07 |
| CSc1cccc(Oc2ncc(F)cc2C(=O)N[C@H]2CC[C@@H](NS(=O)(=O)c3cccc4nonc34)CC2)c1 [Example 12, Syn-N-[4-(Benzo[1,2,5]oxadiazole-4-sulphonylamino)-cyclohexyl]-5-fluoro-2-(3-methylsulphanyl-phenoxy)-nicotinamide] | 0.3 |
| CSc1cccc(Oc2ncc(F)cc2C(=O)N[C@H]2CC[C@@H](NS(=O)(=O)c3c(O)ccc4nsnc34)CC2)c1 [Example 14] | 1 |
| CSc1cccc(Oc2ncc(F)cc2C(=O)N[C@H]2CC[C@@H](NS(=O)(=O)c3cccc4nsnc34)CC2)c1 [Example 13, Syn-N-[4-(Benzo[1,2,5]thiadiazole-4-sulphonylamino)-cyclohexyl]-5-fluoro-2-(3-methylsulphanyl-phenoxy)-nicotinamide] | 0.09 |

The remaining lines, values ahead:

| IC50 [nM] | SMILES |
| --- | --- |
| 3.5 | CSc1cc(Oc2ncc(F)cc2C(=O)N[C@H]2CC[C@@H](NS(=O)(=O)c3cc(C)ccc3O)CC2)ccc1F [Example 16, Syn-5-Fluoro-N-[4-(2-hydroxy-5-methyl-benzenesulphonylamino)-cyclohexyl]-2-(4-fluoro-3-methylsulphanyl-Phenoxy)-nicotinamide] |
| 2 | CSc1cccc(Oc2ncc(F)cc2C(=O)N[C@H]2CC[C@@H](NS(=O)(=O)c3ccc(C)cc3O)CC2)c1 [Example 15, Syn-5-Fluoro-N-[4-(2-hydroxy-4-methyl-benzenesulphonylamino)-cyclohexyl]-2-(3-methylsulphanyl-phenoxy)-nicotinamide] |
